Measurements as given in US7598397B2, “Sulfonamide peri-substituted bicyclics for occlusive artery disease” (deCODE genetics ehf, priority 2004, dated 2009).

Target: T1, prostanoid EP3 receptors (Homo sapiens, UniProt P43115)
T1 sequence (P43115 1-390): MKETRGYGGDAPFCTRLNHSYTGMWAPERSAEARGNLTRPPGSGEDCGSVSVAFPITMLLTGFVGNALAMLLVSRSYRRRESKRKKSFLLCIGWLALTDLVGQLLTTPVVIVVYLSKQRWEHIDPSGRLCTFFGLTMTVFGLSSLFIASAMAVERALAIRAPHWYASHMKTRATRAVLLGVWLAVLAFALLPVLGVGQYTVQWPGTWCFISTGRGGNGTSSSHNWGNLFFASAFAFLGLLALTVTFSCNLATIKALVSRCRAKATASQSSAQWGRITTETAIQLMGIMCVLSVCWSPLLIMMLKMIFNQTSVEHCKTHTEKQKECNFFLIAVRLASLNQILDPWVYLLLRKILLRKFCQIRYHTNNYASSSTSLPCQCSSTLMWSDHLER
Assay: binding on prostanoid EP3 receptors (method of Abramovitz et al.)
Conditions: read-out: Activity (EP3 receptor binding, IC50 class)
Experimental: The compounds of the invention were assayed for their binding on prostanoid EP3 receptors according to the method of Abramovitz et al. [Bioch. Biophys.

| IC50 | Compound |
| --- | --- |
| < 1000 nM | O=C(COc1cccc2oc(=O)n(Cc3ccc(Cl)c(Cl)c3)c12)NS(=O)(=O)c1cccs1 [Compound P051] |
| < 1000 nM | O=C(COc1cccc2oc(=O)n(Cc3ccc(Cl)cc3Cl)c12)NS(=O)(=O)c1cccs1 [Compound P052] |
| 1000 to 10000 nM | Cc1ccc(C)c(Cn2c(=O)oc3cccc(OCC(=O)NS(=O)(=O)c4cccs4)c32)c1 [Compound P053] |
| 1000 to 10000 nM | COc1c(C)cnc(Cn2ccc3cccc(C=CC(=O)NS(=O)(=O)c4cccs4)c32)c1C [Compound P055] |
| < 1000 nM | Cc1cn(Cc2ccc3ccccc3c2)c2c(/C=C/C(=O)NS(=O)(=O)c3cccs3)cccc12 [Compound P057] |
| < 1000 nM | CC1C(=O)N(Cc2ccc(Cl)cc2Cl)c2c(C=CC(=O)NS(=O)(=O)c3cccs3)cccc21 (centres unmarked) [Compound P058] |
| < 1000 nM | CC1C(=O)N(Cc2ccc3ccccc3c2)c2c(C=CC(=O)NS(=O)(=O)c3cccs3)cccc21 (centres unmarked) [Compound P059] |
| < 1000 nM | O=C(C=Cc1cc(F)cc2ccn(Cc3ccc4ccccc4c3)c12)NS(=O)(=O)c1cccs1 [Compound P060] |
| < 1000 nM | O=C(C=Cc1cc(F)cc2ccn(Cc3ccc(Cl)cc3Cl)c12)NS(=O)(=O)c1cccs1 [Compound P061] |
| < 1000 nM | O=C(/C=C/c1cccc2c(CO)cn(Cc3ccc(Cl)cc3Cl)c12)NS(=O)(=O)c1cccs1 [Compound P062] |
| < 1000 nM | CC1C(=O)N(Cc2ccc(Cl)cc2Cl)c2c(C=CC(=O)NS(=O)(=O)c3cccs3)cc(F)cc21 (centres unmarked) [Compound P065] |
| < 1000 nM | CC1C(=O)N(Cc2ccc3ccccc3c2)c2c(C=CC(=O)NS(=O)(=O)c3cccs3)cc(F)cc21 (centres unmarked) [Compound P066] |
| < 1000 nM | O=Cc1cn(Cc2ccc(Cl)cc2Cl)c2c(C=CC(=O)NS(=O)(=O)c3cccs3)cccc12 [Compound P069] |
| < 1000 nM | COCc1cn(Cc2ccc(Cl)cc2Cl)c2c(C=CC(=O)NS(=O)(=O)c3cccs3)cccc12 [Compound P070] |
| < 1000 nM | Cc1cn(Cc2ccc(Cl)cc2Cl)c2c(CCC(=O)NS(=O)(=O)c3cc(Cl)c(Cl)s3)cccc12 [Compound P072] |
| < 1000 nM | Cc1cn(Cc2ccc3ccccc3c2)c2c(CCC(=O)NS(=O)(=O)c3cc(Cl)c(Cl)s3)cccc12 [Compound P073] |
| < 1000 nM | O=C(CCc1cccc2ccn(Cc3ccc4ccccc4c3)c12)NS(=O)(=O)c1cccs1 [Compound P074] |

| IC50 | Compound |
| --- | --- |
| < 1000 nM | Cc1cn(Cc2ccc3ccccc3c2)c2c(/C=C/C(=O)N(C)S(=O)(=O)c3cc(Cl)c(Cl)s3)cc(F)cc12 [Compound P076] |
| < 1000 nM | Cc1cn(Cc2ccc(Cl)cc2Cl)c2c(C=CC(=O)NS(=O)(=O)c3cc(Cl)c(Cl)s3)cccc12 [Compound P079] |
| < 1000 nM | O=C(C=Cc1cccc2c1N(Cc1ccc3ccccc3c1)C(=O)C21OCCO1)NS(=O)(=O)c1cccs1 [Compound P083] |
| < 1000 nM | Cc1cn(Cc2ccccc2)c2c(/C=C/C(=O)NS(=O)(=O)c3cccs3)cccc12 [Compound P084] |
| < 1000 nM | CC(=O)c1cn(Cc2ccc(Cl)cc2Cl)c2c(C=CC(=O)NS(=O)(=O)c3cccs3)cccc12 [Compound P085] |
| < 1000 nM | Cc1cn(Cc2ccccc2Cl)c2c(/C=C/C(=O)NS(=O)(=O)c3cccs3)cccc12 [Compound P086] |
| < 1000 nM | Cc1cn(Cc2cc(F)cc(F)c2)c2c(/C=C/C(=O)NS(=O)(=O)c3cccs3)cccc12 [Compound P088] |
| < 1000 nM | Cc1cn(Cc2cc3c(cc2Cl)OCO3)c2c(/C=C/C(=O)NS(=O)(=O)c3cccs3)cccc12 [Compound P089] |
| < 1000 nM | Cc1cn(Cc2ccc(Cl)cc2Cl)c2c(C=CC(=O)NS(=O)(=O)c3ccccc3)cccc12 [Compound P090] |
| 1000 to 10000 nM | CC(C)c1cn(Cc2ccc(Cl)cc2Cl)c2c(CCC(=O)NS(=O)(=O)c3cccs3)cccc12 [Compound P091] |
| 1000 to 10000 nM | CC(C)C1C(=O)N(Cc2ccc(Cl)cc2Cl)c2c(CCC(=O)NS(=O)(=O)c3cccs3)cccc21 (centres unmarked) [Compound P093] |
| < 1000 nM | O=C(C=Cc1cccc2c1N(Cc1ccc3ccccc3c1)C(=O)C2=O)NS(=O)(=O)c1cccs1 [Compound P096] |
| < 1000 nM | O=C(CCc1cccc2c1N(Cc1ccc3ccccc3c1)C(=O)C21OCCO1)NS(=O)(=O)c1cccs1 [Compound P097] |
| < 1000 nM | Cc1cn(Cc2ccc3ccccc3n2)c2c(/C=C/C(=O)NS(=O)(=O)c3cccs3)cccc12 [Compound P099] |
| < 1000 nM | Cc1cn(Cc2ccc3c(c2)OCO3)c2c(/C=C/C(=O)NS(=O)(=O)c3cccs3)cccc12 [Compound P101] |
| < 1000 nM | Cc1cn(Cc2cc(F)cc3c2OCOC3)c2c(/C=C/C(=O)NS(=O)(=O)c3cccs3)cccc12 [Compound P102] |

Continued, compound first:

| Compound | IC50 |
| --- | --- |
| O=C(C=Cc1cccc2ccn(Cc3ccc4ccccc4c3)c12)NS(=O)(=O)c1cccs1 [Compound P001] | < 1000 nM |
| O=C(/C=C/c1cccc2c1N(Cc1ccc3ccccc3c1)CC2)NS(=O)(=O)c1cccs1 [Compound P003] | < 1000 nM |
| O=C(C=Cc1cccc2ccn(C(=O)c3ccc4ccccc4c3)c12)NS(=O)(=O)c1cccs1 [Compound P005] | < 1000 nM |
| Cc1ccc(C)c(Cn2ccc3cccc(C=CC(=O)NS(=O)(=O)c4cccs4)c32)c1 [Compound P008] | < 1000 nM |
| O=C(Cn1c(=O)ccc2cccc(OCc3ccc4ccccc4c3)c21)NS(=O)(=O)c1cccs1 [Compound P012] | > 10000 nM |
| O=C(CN1CCCc2cccc(OCc3ccc4ccccc4c3)c21)NS(=O)(=O)c1cccs1 [Compound P015] | 1000 to 10000 nM |
| O=C(C=Cc1cccc2ccn(Cc3ccc4ccccc4c3)c12)NS(=O)(=O)C(F)(F)F [Compound P016] | < 1000 nM |
| O=C(COc1cccc2c1N(Cc1ccc3ccccc3c1)C(=O)CO2)NS(=O)(=O)c1cccs1 [Compound P018] | < 1000 nM |
| O=C(Nc1cccc2c1N(Cc1ccc3ccccc3c1)C(=O)CO2)C(=O)NS(=O)(=O)c1cccs1 [Compound P019, N-(4-Naphthalen-2-ylmethyl-3-oxo-3,4-dihydro-2H-benzo[1,4]oxazin-5-yl)-2-oxo-2-(thiophen-2-sulfonylamino)-acetamide] | 1000 to 10000 nM |
| Cc1ccc(CN2C(=O)COc3cccc(OCC(=O)NS(=O)(=O)c4cccs4)c32)cc1C [Compound P020] | 1000 to 10000 nM |
| Cc1ccc(C)c(CN2C(=O)COc3cccc(OCC(=O)NS(=O)(=O)c4cccs4)c32)c1 [Compound P021] | 1000 to 10000 nM |
| O=C(COc1cccc2c1N(Cc1ccccc1)C(=O)CO2)NS(=O)(=O)c1cccs1 [Compound P022] | 1000 to 10000 nM |
| Cc1ccc(CN2C(=O)COc3cccc(OCC(=O)NS(=O)(=O)c4cccs4)c32)cc1 [Compound P023] | 1000 to 10000 nM |
| O=C(COc1cccc2c1N(Cc1ccc(F)cc1)C(=O)CO2)NS(=O)(=O)c1cccs1 [Compound P024] | > 10000 nM |
| O=C(COc1cccc2c1N(Cc1ccc(Cl)cc1)C(=O)CO2)NS(=O)(=O)c1cccs1 [Compound P025] | > 10000 nM |
| O=C(COc1cccc2c1N(Cc1ccc(OC(F)F)cc1)C(=O)CO2)NS(=O)(=O)c1cccs1 [Compound P026] | 1000 to 10000 nM |

| Compound | IC50 |
| --- | --- |
| O=C(COc1cccc2c1N(Cc1ccc(OC(F)(F)F)cc1)C(=O)CO2)NS(=O)(=O)c1cccs1 [Compound P027] | 1000 to 10000 nM |
| COc1cccc(CN2C(=O)COc3cccc(OCC(=O)NS(=O)(=O)c4cccs4)c32)c1 [Compound P030] | 1000 to 10000 nM |
| O=C(COc1cccc2c1N(Cc1ccccc1C(F)(F)F)C(=O)CO2)NS(=O)(=O)c1cccs1 [Compound P031] | 1000 to 10000 nM |
| O=C(C=Cc1cnn2ccn(Cc3ccc4ccccc4c3)c12)NS(=O)(=O)c1cccs1 [Compound P034] | < 1000 nM |
| Cc1nc2cccc(OCC(=O)NS(=O)(=O)c3cccs3)c2n1Cc1ccc2ccccc2c1 [Compound P037, Thiophen-2-sulfonic acid [2-(2-methyl-3-naphthalen-2-ylmethyl-3H-benzoimidazol-4-yloxy)-acetyl] amide] | 1000 to 10000 nM |
| Cc1ccc(S(=O)(=O)NC(=O)OCc2cccc3ccn(Cc4ccc5ccccc5c4)c23)cc1 [Compound P038] | < 1000 nM |
| O=C(COc1cccc2c1N(Cc1ccc(Cl)c(Cl)c1)C(=O)CO2)NS(=O)(=O)c1cccs1 [Compound P039] | < 1000 nM |
| O=C(COc1cccc2c1N(Cc1ccc(Cl)cc1Cl)C(=O)CO2)NS(=O)(=O)c1cccs1 [Compound P040] | < 1000 nM |
| COc1cc(CN2C(=O)COc3cccc(OCC(=O)NS(=O)(=O)c4cccs4)c32)cc(OC)c1 [Compound P041] | 1000 to 10000 nM |
| O=C(COc1cccc2c1N(Cc1ccc3nonc3c1)C(=O)CO2)NS(=O)(=O)c1cccs1 [Compound P042] | 1000 to 10000 nM |
| CCOP(=O)(NC(=O)OCc1cccc2ccn(Cc3ccc4ccccc4c3)c12)OCC [Compound P044] | 1000 to 10000 nM |
| O=C(COc1cccc2oc(=O)n(Cc3ccc4ccccc4c3)c12)NS(=O)(=O)c1cccs1 [Compound P046] | < 1000 nM |
| COc1ccc(Br)cc1S(=O)(=O)NC(=O)COc1cccc2oc(=O)n(Cc3ccc4ccccc4c3)c12 [Compound P047] | < 1000 nM |
| O=C(COc1cccc2oc(=O)n(Cc3ccc4ccccc4c3)c12)NS(=O)(=O)C(F)(F)F [Compound P048] | 1000 to 10000 nM |
| O=C(CNc1cccc2c1N(Cc1ccc3ccccc3c1)C(=O)CO2)NS(=O)(=O)c1cccs1 [Compound P049, Thiophen-2-sulfonic acid[2-(4-naphthalen-2-ylmethyl-3-oxo-3,4-dihydro-2H-benzo[1,4]oxazin-5-ylamino)-acetyl]-amide] | 1000 to 10000 nM |
| O=C(COc1cccc2oc(=O)n(Cc3ccc4c(c3)OCO4)c12)NS(=O)(=O)c1cccs1 [Compound P050] | 1000 to 10000 nM |
